Results from patent publication US3933904A, “11,15-Dihydroxy-9,13-prostadienoic acid” (American Home Products Corporation, priority 1974, dated 1976).

Experiments:
[1] = test system: bronchoconstricting effects of a standard dose of acetylcholine; assay: Bronchodilation by aerosol inhalation (method of Rosenthale et al.): inhibition of the bronchoconstricting effects of a standard dose of acetylcholine; assay type: in vivo; settings: guinea pig
Description: In using the compounds of the invention to produce bronchodilating effects in warm-blooded animals, they may be administered in a variety of dosage forms: oral, injectable, and aerosol inhalation. Aerosol inhalation is a preferred method because of its rapid onset of action, great potency, and specificity of action. The particular dosage to obtain the bronchodilating effect will vary with the particular compound employed, the particular animal involved, and the degree of bronchodilation desired. In the guinea pig, by aerosol inhalation, the dose to produce bronchodilation is from about 1.5 micrograms to about 100 micrograms, and preferably from about 1.5 to about 50 micrograms. The bronchodilation produced upon aerosol inhalation can be observed by the method of Rosenthale et al., J. Pharmacol. Exp. Ther., 178, 541 (1971). Using this procedure the following result was obtained.

[2] = test system: ADP induced platelet aggregation (human platelet rich plasma); assay: ADP induced platelet aggregation in platelet rich plasma (modification of Born and Cross); assay type: cell-based; settings: human PRP, in vitro; for IC50: Platelet, ADP induced (2 to 4 μM ADP), read-out: Concentration which inhibits 50% of platelet aggregation
Procedure: Platelet aggregation is the initial step in thrombus formation and it is considered that compounds which prevent aggregation or reduce platelet adhesiveness may inhibit the initiation of the arteriosclerotic process. The effect of drugs on aggregation is measured in platelet rich plasma (PRP) containing adenosine diphosphate (ADP) which markedly increases aggregation in vitro and may be a physiological agent for doing so in vivo.
Human blood is collected from fasted normal blood donors in siliconized 50 ml. Vacutainers that contain 3.8% sodium citrate. Centrifugation at 500 G. for 3 minutes at 5° C. separates the red blood cells from the PRP. The supernatant PRP is pipetted off and the remainder is centrifuged at 1000 G. for 10 minutes at 25° C. to obtain platelet poor plasma for standardization of the automated Payton aggregometer. In the running of the platelet aggregation test a cell containing 1.0 ml. of PRP is stirred at 1,100 rpm and the test compound is added in 0.2 ml. of buffered saline to give an initial concentration of 5 × 10^-^3 M, or 5 × 10^-^4 M. After 3 minutes, a concentration of ADP predetermined to yield marked platelet aggregation (2 to 4 μM) is added in 0.1 ml. of buffered saline. The curve of light transmission at 610 mμ is followed for 6 minutes. Compounds found to be active at the initial concentration are run at lower concentrations. The results are expressed as the concentration which gives 50% inhibition of the ADP induced aggregation.

[3] = Hypotension in the anesthetized dog, intravenous route; assay type: in vivo; settings: dose 100 μg/kg
Procedure: Thus in the anesthetized dog by the intravenous route the dose to produce hypotension is from about 1 μg/kg. to about 200 μg/kg. and preferably from about 10 μg/kg. to about 100 μg/kg. Using this procedure the following results were obtained.

Row | Compound | Percent Inhibition of the bronchoconstricting effects of a standard dose of acetylcholine ([1]; dose 1.5 μg) | IC50 [2] | Inhibition of ADP induced platelet aggregation (at concentration) ([2]; at 1.5 × 10^-^6 M) | Δb.p. [3] | Percent Inhibition of the bronchoconstricting effects of a standard dose of acetylcholine ([1]; dose 15 μg) | Inhibition of ADP induced platelet aggregation (at concentration) ([2]; at 2.6 × 10^-^6 M)
1 | CCCCC[C@H](O)/C=C/[C@H]1[C@H](O)C=C[C@@H]1CCCCCCC(=O)O [4α-hydroxy-5β-[(3S)-3-hydroxy-trans-1-octenyl]-2-cyclopentene-1α-heptanoic acid] | 60% | 1200 nM | 63% | -34 mm. Hg |  | 
2 | CCCCC[C@H](O)/C=C/[C@H]1[C@H](O)C=C[C@@H]1C/C=C\CCCC(=O)O [7-(4α-hydroxy-5β-[(3S)-3-hydroxy-trans-1-octenyl]-2-cyclopenten-1α-yl)-cis-5-heptenoic acid] |  | 2600 nM |  |  | 44% | 50%
